Test results reported in PubChem BioAssay AID248 (DTP/NCI, 2004).
Several values for one entry are separate records, joined by “and”; a condition that tells them apart may be missing. Equal entries are not always repeated. Inconclusive results and toxic doses are left out.

System: L1210 leukemia ip in BDF1 mice, survival T/C
Experiment: NCI In Vivo Anticancer Drug Screen. Data for tumor model L1210 Leukemia (intraperitoneal) in B6D2F1 (BDF1) mice
Conditions: endpoint: mean survival time, higher = longer survival
Outline: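 Tumor cells were implanted, animals were treated, and survival was followed. The result divides the treated measurement by the vehicle-control measurement.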

[1] = dose: 5.0 mg/kg/injection, schedule: Q01DX001 (ip), vehicle: saline
[2] = dose: 10.0 mg/kg/injection, schedule: Q01DX001 (ip), vehicle: saline
[3] = dose: 20.0 mg/kg/injection, schedule: Q01DX001 (ip), vehicle: saline
[4] = dose: 40.0 mg/kg/injection, schedule: Q01DX001 (ip), vehicle: saline
[5] = dose: 100.0 mg/kg/injection, schedule: Q04DX002 (ip), vehicle: Klucel (hydroxypropylcellulose) (HPC)
[6] = dose: 100.0 mg/kg/injection, schedule: Q04DX003 (ip), vehicle: Klucel (hydroxypropylcellulose) (HPC)
[7] = dose: 200.0 mg/kg/injection, schedule: Q04DX003 (ip), vehicle: Klucel (hydroxypropylcellulose) (HPC)
[8] = dose: 100.0 mg/kg/injection, schedule: Q01DX001 (ip), vehicle: saline
[9] = dose: 200.0 mg/kg/injection, schedule: Q01DX001 (ip), vehicle: saline
[10] = dose: 750.0 mg/kg/injection, schedule: Q01DX Z (ip), vehicle: carboxymethylcellulose (CMC)
[11] = dose: 75.0 mg/kg/injection, schedule: Q01DX001 (ip), vehicle: saline
[12] = dose: 150.0 mg/kg/injection, schedule: Q01DX001 (ip), vehicle: saline

For `CCNP(=O)(CCl)NC12CC3CC(CC(C3)C1)C2` (configuration not stated), the T/C (dose: 50.0 mg/kg/injection, schedule: Q01DX009 (ip), vehicle: Klucel (hydroxypropylcellulose) (HPC)) was 91 % of control, the T/C (dose: 100.0 mg/kg/injection, schedule: Q01DX009 (ip), vehicle: Klucel (hydroxypropylcellulose) (HPC)) was 93 % of control and the T/C (dose: 200.0 mg/kg/injection, schedule: Q01DX009 (ip), vehicle: Klucel (hydroxypropylcellulose) (HPC)) was 93 % of control.
`Oc1ccc([S+](c2ccc(O)cc2)c2ccc(O)cc2)cc1` was tested, and the T/C [1] was 96 % of control, the T/C [2] was 96 % of control and the T/C [3] was 107 % of control. For the same compound, the T/C [4] was 105 % of control.
With `CCCCCCCCCCCCCCCCCC[N+](C)(C)Cc1cc(=O)c(O)co1` the T/C (dose: 6.25 mg/kg/injection, schedule: Q01DX009 (ip), vehicle: saline) was 89 % of control, the T/C (dose: 12.5 mg/kg/injection, schedule: Q01DX009 (ip), vehicle: saline) was 106 % of control and the T/C (dose: 25.0 mg/kg/injection, schedule: Q01DX009 (ip), vehicle: saline) was 99 % of control.
In the case of `NC(=O)c1cncc(C(N)=O)c1`, the T/C (dose: 100.0 mg/kg/injection, schedule: Q04DX002 (ip), vehicle: saline) is reported as 103 % of control, the T/C (dose: 200.0 mg/kg/injection, schedule: Q04DX002 (ip), vehicle: saline) is reported as 95 % of control and the T/C (dose: 400.0 mg/kg/injection, schedule: Q04DX002 (ip), vehicle: saline) is reported as 100 % of control.
With `CN(C)CCNc1ccc([N+](=O)[O-])c2sc3ccccc3c(=O)c12` the T/C (dose: 5.3 mg/kg/injection, schedule: Q01DX Z (ip), vehicle: methylcellulose (MC)) was 94 % of control and 98 % of control, the T/C (dose: 8.0 mg/kg/injection, schedule: Q01DX Z (ip), vehicle: carboxymethylcellulose (CMC)) was 102 % of control and the T/C (dose: 8.0 mg/kg/injection, schedule: Q01DX Z (ip), vehicle: methylcellulose (MC)) was 98 % of control and 106 % of control. The T/C (dose: 12.0 mg/kg/injection, schedule: Q01DX Z (ip), vehicle: carboxymethylcellulose (CMC)) was 118 % of control, the T/C (dose: 26.0 mg/kg/injection, schedule: Q01DX Z (ip), vehicle: carboxymethylcellulose (CMC)) was 152 % of control and the T/C (dose: 27.0 mg/kg/injection, schedule: Q01DX Z (ip), vehicle: carboxymethylcellulose (CMC)) was 156 % of control. For the same compound, the T/C (dose: 27.0 mg/kg/injection, schedule: Q01DX Z (ip), vehicle: methylcellulose (MC)) was 98 % of control and 156 % of control and 216 % of control, the T/C (dose: 40.0 mg/kg/injection, schedule: Q01DX Z (ip), vehicle: carboxymethylcellulose (CMC)) was 172 % of control and the T/C (dose: 40.0 mg/kg/injection, schedule: Q01DX Z (ip), vehicle: methylcellulose (MC)) was 111 % of control.
For `CCOC(=O)C(=O)c1c2cn(O)nc(OC)c-2nc1[N+](=O)[O-]`, the T/C (dose: 12.5 mg/kg/injection, schedule: Q04DX002 (ip), vehicle: saline with Tween-80) was 89 % of control, the T/C (dose: 25.0 mg/kg/injection, schedule: Q04DX002 (ip), vehicle: saline with Tween-80) was 96 % of control and the T/C (dose: 50.0 mg/kg/injection, schedule: Q04DX002 (ip), vehicle: saline with Tween-80) was 96 % of control.
For `O=C(O)c1cccc(Cl)c1.[Ni]`, the T/C (dose: 25.0 mg/kg/injection, schedule: Q04DX002 (ip), vehicle: Klucel (hydroxypropylcellulose) (HPC)) was 103 % of control, the T/C (dose: 50.0 mg/kg/injection, schedule: Q04DX002 (ip), vehicle: Klucel (hydroxypropylcellulose) (HPC)) was 100 % of control and the T/C [5] was 90 % of control.
With `O=Cc1c(Cl)n(C(=O)c2ccccc2Cl)c2ccccc12` the T/C [5] was 97 % of control and the T/C (dose: 200.0 mg/kg/injection, schedule: Q04DX002 (ip), vehicle: Klucel (hydroxypropylcellulose) (HPC)) was 86 % of control.
For `Cc1cc(Cl)ccc1NC(=O)OCCSc1ccc(Cl)cc1`, the T/C (dose: 100.0 mg/kg/injection, schedule: Q01DX001 (ip), vehicle: gum acacia) was 94 % of control, the T/C (dose: 100.0 mg/kg/injection, schedule: Q01DX009 (ip), vehicle: gum acacia) was 94 % of control and 95 % of control and the T/C (dose: 100.0 mg/kg/injection, schedule: Q04DX003 (ip), vehicle: gum acacia) was 93 % of control and 94 % of control. The T/C (dose: 200.0 mg/kg/injection, schedule: Q01DX001 (ip), vehicle: gum acacia) was 101 % of control, the T/C (dose: 200.0 mg/kg/injection, schedule: Q01DX009 (ip), vehicle: gum acacia) was 97 % of control and 91 % of control and the T/C (dose: 200.0 mg/kg/injection, schedule: Q04DX003 (ip), vehicle: gum acacia) was 97 % of control. The T/C (dose: 400.0 mg/kg/injection, schedule: Q01DX001 (ip), vehicle: gum acacia) was 101 % of control, the T/C (dose: 400.0 mg/kg/injection, schedule: Q01DX009 (ip), vehicle: gum acacia) was 93 % of control and 98 % of control and the T/C (dose: 400.0 mg/kg/injection, schedule: Q04DX003 (ip), vehicle: gum acacia) was 95 % of control and 90 % of control.
For `CC(=O)NC1CCCCC1`, the T/C (dose: 100.0 mg/kg/injection, schedule: Q04DX003 (ip), vehicle: saline with Tween-80) was 95 % of control, the T/C (dose: 200.0 mg/kg/injection, schedule: Q04DX003 (ip), vehicle: saline with Tween-80) was 98 % of control and the T/C (dose: 400.0 mg/kg/injection, schedule: Q04DX003 (ip), vehicle: saline with Tween-80) was 92 % of control.
With `Oc1c(C(c2ccccc2)N2CCCC2)ccc2ccccc12` (configuration not stated) the T/C (dose: 75.0 mg/kg/injection, schedule: Q04DX003 (ip), vehicle: saline with Tween-80) was 100 % of control, the T/C (dose: 150.0 mg/kg/injection, schedule: Q04DX003 (ip), vehicle: saline with Tween-80) was 92 % of control and the T/C (dose: 300.0 mg/kg/injection, schedule: Q04DX003 (ip), vehicle: saline with Tween-80) was 96 % of control.
For `N#C/C(=C\c1cccs1)c1ccccc1`, the T/C (dose: 50.0 mg/kg/injection, schedule: Q04DX003 (ip), vehicle: Klucel (hydroxypropylcellulose) (HPC)) was 110 % of control, the T/C [6] was 98 % of control and the T/C [7] was 104 % of control.
In the case of `COc1cc(/C=C/c2ccnc3ccccc23)cc(OC)c1OC`, the T/C [1] is reported as 96 % of control, the T/C [2] is reported as 102 % of control and the T/C [3] is reported as 102 % of control. The T/C [4] was 91 % of control.
For `CN(C)c1ccc(C(N)C(=O)O)cc1` (configuration not stated), the T/C (dose: 50.0 mg/kg/injection, schedule: Q01DX001 (ip), vehicle: saline) was 101 % of control, the T/C [8] was 98 % of control and the T/C [9] was 95 % of control.
In the case of `CCOC(=O)c1c[nH]c(C)c1C`, the T/C [6] is reported as 104 % of control, the T/C [7] is reported as 109 % of control and the T/C (dose: 400.0 mg/kg/injection, schedule: Q04DX003 (ip), vehicle: Klucel (hydroxypropylcellulose) (HPC)) is reported as 105 % of control.
In the case of `On1cnc(=S)c2[nH]cnc21`, the T/C (dose: 100.0 mg/kg/injection, schedule: Q01DX001 (ip), vehicle: carboxymethylcellulose (CMC)) is reported as 98 % of control, the T/C (dose: 200.0 mg/kg/injection, schedule: Q01DX001 (ip), vehicle: carboxymethylcellulose (CMC)) is reported as 98 % of control and the T/C (dose: 250.0 mg/kg/injection, schedule: Q01DX Z (ip), vehicle: carboxymethylcellulose (CMC)) is reported as 112 % of control. For the same compound, the T/C (dose: 400.0 mg/kg/injection, schedule: Q01DX001 (ip), vehicle: carboxymethylcellulose (CMC)) was 98 % of control, the T/C (dose: 500.0 mg/kg/injection, schedule: Q01DX001 (ip), vehicle: carboxymethylcellulose (CMC)) was 100 % of control and the T/C (dose: 750.0 mg/kg/injection, schedule: Q01DX001 (ip), vehicle: carboxymethylcellulose (CMC)) was 113 % of control. The T/C [10] was 156 % of control and the T/C (dose: 1000.0 mg/kg/injection, schedule: Q01DX001 (ip), vehicle: carboxymethylcellulose (CMC)) was 117 % of control.
For `CONC(N)=O`, the T/C (dose: 100.0 mg/kg/injection, schedule: Q01DX Z (ip), vehicle: carboxymethylcellulose (CMC)) was 100 % of control, the T/C (dose: 200.0 mg/kg/injection, schedule: Q01DX Z (ip), vehicle: carboxymethylcellulose (CMC)) was 98 % of control and the T/C (dose: 350.0 mg/kg/injection, schedule: Q01DX Z (ip), vehicle: carboxymethylcellulose (CMC)) was 100 % of control and 101 % of control. For the same compound, the T/C (dose: 500.0 mg/kg/injection, schedule: Q01DX Z (ip), vehicle: carboxymethylcellulose (CMC)) was 98 % of control and the T/C [10] was 98 % of control.
With `COC(=O)c1c[nH]c2cc(OC(C)C)c(OC(C)C)cc2c1=O` the T/C (dose: 100.0 mg/kg/injection, schedule: Q01DX001 (ip), vehicle: saline with Tween-80) was 96 % of control, the T/C (dose: 200.0 mg/kg/injection, schedule: Q01DX001 (ip), vehicle: saline with Tween-80) was 91 % of control and the T/C (dose: 400.0 mg/kg/injection, schedule: Q01DX001 (ip), vehicle: saline with Tween-80) was 100 % of control.
For `COc1ccc(C(=S)N2CCN(c3ccc(Cl)cc3)CC2)cc1`, the T/C [8] was 95 % of control, the T/C [9] was 95 % of control and the T/C (dose: 400.0 mg/kg/injection, schedule: Q01DX001 (ip), vehicle: saline) was 95 % of control.
For `C1=CC2CC1C1CC21` (configuration not stated), the T/C [11] was 100 % of control, the T/C [12] was 96 % of control and the T/C (dose: 300.0 mg/kg/injection, schedule: Q01DX001 (ip), vehicle: saline) was 96 % of control.
`Fc1ccc(Cl)c2cccnc12` was tested, and the T/C [11] was 105 % of control and the T/C [12] was 102 % of control.
